Results on 26 compounds are retold here after ChEMBL document CHEMBL1201862, “PubChem BioAssay data set” (2004).

Test systems include DLD-1; HOP-18; SNB-78; M19-MEL; LXFL 529; XF498; DMS-273; DMS-114; RXF 631.
Common to all, as to experiment: growth of human tumour cells (NCI), 48 h

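Five compound concentrations were applied to cells in 96-well plates for 48 hours; endpoints were derived by simple linear interpolation of the resulting dose-response curve. GI50: concentration for 50% inhibition of growth.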 Calls of active or inactive are those of the source. Cut-off read from the data, not from the text of the source: active = GI50 up to about 1.1 µM and inactive = higher.

Consider `O=C(O)/C=C/C(=O)N1C/C(=C\c2ccccc2)C(=O)/C(=C/c2ccccc2)C1`, for which the GI50 in the test with DLD-1 is 3.94 µM (inactive); in the test on HOP-18, 11.9 µM (inactive); in the test on SNB-78, 5.9 µM (inactive); in the test with M19-MEL, 3.21 µM (inactive); in the test on LXFL 529 it was 1.8 µM (inactive); with XF498 it was 7.18 µM (inactive). Further, the GI50 in the test on DMS-273 was 8.53 µM (inactive); with DMS-114, 2.99 µM (inactive).
For `O=C(O)CCNS(=O)(=O)c1ccc(NC(=O)c2ccccc2)cc1`, the GI50 in the test on DLD-1, in the test with HOP-18, with M19-MEL, with LXFL 529, in the test with XF498 and with DMS-273 was > 100 µM (inactive) in each case.
Turning to `CN(C)CCNC(=O)c1cccc2[nH]c(-c3cccnc3)nc12`, the GI50 in the test on DLD-1 is 22.2 µM (inactive); in the test on HOP-18, 25.2 µM (inactive); in the test with SNB-78, 35 µM (inactive); in the test with M19-MEL it was 20.2 µM (inactive); in the test with DMS-273 it was 20.7 µM (inactive).
Regarding `Cn1c(=O)c2c(nc3n2CCC(=O)N3)n(C)c1=O`, the GI50 in the test with DLD-1, in the test with RXF 631, in the test with SNB-78, in the test on M19-MEL, in the test on LXFL 529 and with DMS-273 was > 100 µM (inactive) throughout. In addition, the GI50 with DMS-114 is > 100 µM (inactive).
As to `Cc1ccc(/N=C2\N=C(N3CC(C)OC(C)C3)c3ccccc32)cc1` (stereo not drawn), the GI50 with DLD-1 is 41.3 µM (inactive); with RXF 631, 34.9 µM (inactive); in the test on SNB-78, 31.1 µM (inactive); in the test on M19-MEL, 36.1 µM (inactive); in the test on LXFL 529, 18.9 µM (inactive); in the test on XF498 it was 24.3 µM (inactive). The GI50 with DMS-273 was 28.1 µM (inactive).
On to `O=C1C2CC=CCC2C(=O)C12CCc1ccccc12` (stereo not drawn), for which the GI50 was > 100 µM (inactive) in the test with DLD-1; 8.15 µM (inactive) in the test with HOP-18; > 100 µM (inactive) with SNB-78; > 100 µM (inactive) with M19-MEL; > 100 µM (inactive) in the test with LXFL 529; > 100 µM (inactive) in the test with XF498. Besides, the GI50 in the test on DMS-273 is > 100 µM (inactive).
Turning to `CCOC(=O)C(CCC(N)=O)(CCC(=O)OC)C(=O)OCC`, the GI50 in the test on DLD-1, in the test with HOP-18, in the test with SNB-78, in the test on M19-MEL, in the test with LXFL 529 and with XF498 was > 100 µM (inactive) in each case. Further, the GI50 in the test with DMS-273 and with DMS-114 was > 100 µM (inactive) throughout.
In the case of `CCOC(=O)NC(=O)c1cn(CCN2CCN(C(=O)CNC(=O)CNC(=O)Cn3cc(C(=O)NC(=O)OCC)c(=O)[nH]c3=O)CC2)c(=O)[nH]c1=O`, the GI50 in the test with DLD-1, with HOP-18, with SNB-78, in the test on M19-MEL, in the test with LXFL 529 and in the test on XF498 was > 100 µM (inactive) each time. The GI50 in the test with DMS-273 and with DMS-114 was > 100 µM (inactive) in each case.
With `Cc1ccc(C)c(NC(=O)CC/C(=N\NC(=O)c2c(O)ccc3ccccc23)C(C)C(=O)c2ccc(O)cc2)c1` (stereo not drawn), the GI50 with DLD-1 is 52.5 µM (inactive); with HOP-18 it was 14.3 µM (inactive); with SNB-78 it was 36.2 µM (inactive); with LXFL 529, 30.5 µM (inactive); with XF498, 44.3 µM (inactive); in the test with DMS-273 it was 26.9 µM (inactive).
`COc1ccc(C(Cl)=C(c2ccc(OCCN(C)C)cc2)c2ccc(OCCN(C)C)cc2)cc1`: the GI50 was 2.51 µM (inactive) in the test on DLD-1; 0.322 µM (active) in the test on RXF 631; 1.71 µM (inactive) in the test with SNB-78; 1.46 µM (inactive) in the test with XF498; 1.86 µM (inactive) with DMS-273; 1.6 µM (inactive) with DMS-114.
Turning to `Brc1cc(C2OCCCO2)ccc1OCc1ccccc1`, the GI50 in the test with DLD-1 is 37 µM (inactive); with SNB-78 it was 34.8 µM (inactive); with M19-MEL, 66.5 µM (inactive); in the test on LXFL 529, 45.9 µM (inactive); with XF498, 59.3 µM (inactive); with DMS-273, 47.8 µM (inactive). Moreover, in the test with DMS-114, the GI50 is 44.3 µM (inactive).
As for `N#C/C(=C\c1cc(OCc2ccccc2)c(OCc2ccccc2)cn1)C(N)=O`, the GI50 with DLD-1, in the test with RXF 631, in the test on SNB-78, in the test with M19-MEL, in the test with LXFL 529 and with XF498 was > 100 µM (inactive) each time. In addition, the GI50 in the test with DMS-114 is 81.3 µM (inactive).
Take `CN(C)c1ccc(/C=C(/C(=O)O)c2csc(-c3nc(/C(=C\c4ccc(N(C)C)cc4)C(=O)O)cs3)n2)cc1`: the GI50 with DLD-1 was > 100 µM (inactive); in the test on SNB-78 it was > 100 µM (inactive); with M19-MEL, > 100 µM (inactive); in the test with LXFL 529, 96.4 µM (inactive); in the test with DMS-114, 29.9 µM (inactive).
Consider `COc1cc(C[P+](c2ccccc2)(c2ccccc2)c2ccccc2)cc(OC)c1OC`, for which the GI50 in the test with DLD-1, in the test with SNB-78, in the test on M19-MEL, with LXFL 529, in the test with XF498 and in the test on DMS-273 was > 100 µM (inactive) throughout. Besides, the GI50 in the test with DMS-114 was > 100 µM (inactive).
As to `O=C(Cc1nc2ccccc2s1)NC12CC3CC(CC(C3)C1)C2`, the GI50 with DLD-1, in the test with RXF 631, in the test on SNB-78, with M19-MEL, with LXFL 529 and in the test with DMS-273 was > 100 µM (inactive) in each case.
Consider `COc1cc(CNc2cnc3ccc(N)cc3n2)cc(OC)c1OC`, for which the GI50 with HOP-18 is > 100 µM (inactive); with SNB-78 it was > 100 µM (inactive); with M19-MEL, 66.8 µM (inactive); in the test with LXFL 529 it was > 100 µM (inactive); with DMS-273, 99.8 µM (inactive); in the test on DMS-114 it was > 100 µM (inactive).
In the case of `COc1cccc(C(=O)N2CCc3ccccc32)c1OC`, the GI50 with RXF 631 is 58.5 µM (inactive); in the test on HOP-18, 34.1 µM (inactive); in the test with SNB-78, > 100 µM (inactive); with M19-MEL, > 100 µM (inactive); in the test on LXFL 529, 74 µM (inactive); in the test with XF498, 40.3 µM (inactive). Also, the values for the GI50 in the test with DMS-273 and with DMS-114 were 41 µM (inactive) and 43.8 µM (inactive), respectively.
On to `CCOC(=O)NC(=O)c1cn(C(CC)COC(=O)NCCCCCCNC(=O)OCC(CC)n2cc(C(=O)NC(=O)OCC)c(=O)[nH]c2=O)c(=O)[nH]c1=O` (stereo not drawn), for which the GI50 in the test with DLD-1 is > 10 µM (inactive); with HOP-18, > 100 µM (inactive); in the test with SNB-78, > 100 µM (inactive); in the test on M19-MEL, > 100 µM (inactive); in the test on LXFL 529, > 100 µM (inactive); in the test on DMS-273 it was > 100 µM (inactive). Also, the GI50 in the test on DMS-114 was > 100 µM (inactive).
As for `COc1ccc(CNc2cnc3ccc(N)cc3n2)cc1`, the GI50 is > 100 µM (inactive) with DLD-1; > 100 µM (inactive) in the test with HOP-18; 82.8 µM (inactive) in the test with SNB-78; 0.243 µM (active) with M19-MEL; > 100 µM (inactive) in the test on XF498; 0.0531 µM (active) in the test with DMS-273. Besides, the GI50 in the test on DMS-114 is 2.09 µM (inactive).
Turning to `OCC(O)C(O)C(O)c1nn(-c2ccc(F)cc2)c2nc3cc(Cl)c(Cl)cc3nc12` (stereo not drawn), the GI50 was 32.7 µM (inactive) with DLD-1; 16.9 µM (inactive) in the test on HOP-18; 13.8 µM (inactive) with SNB-78; 22 µM (inactive) in the test with M19-MEL; 28.1 µM (inactive) in the test on LXFL 529; 11.4 µM (inactive) in the test with XF498. The GI50 in the test with DMS-273 is 15.9 µM (inactive); with DMS-114, 21.3 µM (inactive).
For `COc1ccc2c(c1)C(=O)N1CCOC1C2C(=O)O` (stereo not drawn), the GI50 with DLD-1, in the test with RXF 631, with HOP-18, in the test on SNB-78, with M19-MEL and in the test with LXFL 529 was > 100 µM (inactive) throughout. Besides, the results for the GI50 in the test on XF498, in the test on DMS-273 and in the test with DMS-114 were > 100 µM (inactive), 0.693 µM (active) and > 100 µM (inactive), respectively.
As for `COC(=O)/C(=N\NC(N)=S)C(C#N)c1ccccc1` (stereo not drawn), the GI50 with DLD-1, in the test with SNB-78, with M19-MEL, in the test on LXFL 529, with XF498 and with DMS-114 was > 100 µM (inactive) each time.
On to `O=C(/C=C/c1c(O)ccc2ccccc12)c1ccccc1Cl`, for which the GI50 in the test on DLD-1 is 31.1 µM (inactive); in the test with SNB-78, 44.4 µM (inactive); with M19-MEL, 14 µM (inactive); with LXFL 529, 31 µM (inactive); in the test on XF498, 23.3 µM (inactive); with DMS-273, 34.3 µM (inactive). Moreover, the GI50 in the test with DMS-114 was 19.9 µM (inactive).
`NC1(CCCCCCCCCCC(=O)O)CNCCNCCNCCNC1`: the GI50 is 40.7 µM (inactive) in the test with DLD-1, 39.6 µM (inactive) with M19-MEL and 28.8 µM (inactive) in the test on DMS-114.
In the case of `CCCCCCCCCCCCSC(=S)c1c(C)[nH]n(-c2ccccc2)c1=O`, the GI50 with DLD-1 was 2.3 µM (inactive); in the test on RXF 631, 13.2 µM (inactive); in the test on HOP-18, > 50 µM (inactive); with SNB-78, 29.8 µM (inactive); in the test on LXFL 529, 9.12 µM (inactive); with DMS-114 it was 6.84 µM (inactive).
`O=C1C=CC2(CCCCCCC2=O)CC1` (stereo not drawn): the GI50 in the test on DLD-1, with HOP-18, with SNB-78, in the test on M19-MEL, in the test with LXFL 529 and in the test on DMS-273 was > 100 µM (inactive) throughout.
